According to US8940724B2, “Quinoline derivitives and their uses” (Amgen Inc., priority 2009, dated 2015):

What follows are compounds tested against T1, PI3Kδ (Homo sapiens, UniProt O00329) (assay: PI3Kδ Alphascreen assay).
T1 construct: Full length p110 subunits of PI3k α, β and δ, N-terminally labeled with polyHis tag; polyHis (N); made in house; host or cells: Sf9 insect cells (baculovirus)
Assay type: biochemical

T1 sequence (O00329 whole entry): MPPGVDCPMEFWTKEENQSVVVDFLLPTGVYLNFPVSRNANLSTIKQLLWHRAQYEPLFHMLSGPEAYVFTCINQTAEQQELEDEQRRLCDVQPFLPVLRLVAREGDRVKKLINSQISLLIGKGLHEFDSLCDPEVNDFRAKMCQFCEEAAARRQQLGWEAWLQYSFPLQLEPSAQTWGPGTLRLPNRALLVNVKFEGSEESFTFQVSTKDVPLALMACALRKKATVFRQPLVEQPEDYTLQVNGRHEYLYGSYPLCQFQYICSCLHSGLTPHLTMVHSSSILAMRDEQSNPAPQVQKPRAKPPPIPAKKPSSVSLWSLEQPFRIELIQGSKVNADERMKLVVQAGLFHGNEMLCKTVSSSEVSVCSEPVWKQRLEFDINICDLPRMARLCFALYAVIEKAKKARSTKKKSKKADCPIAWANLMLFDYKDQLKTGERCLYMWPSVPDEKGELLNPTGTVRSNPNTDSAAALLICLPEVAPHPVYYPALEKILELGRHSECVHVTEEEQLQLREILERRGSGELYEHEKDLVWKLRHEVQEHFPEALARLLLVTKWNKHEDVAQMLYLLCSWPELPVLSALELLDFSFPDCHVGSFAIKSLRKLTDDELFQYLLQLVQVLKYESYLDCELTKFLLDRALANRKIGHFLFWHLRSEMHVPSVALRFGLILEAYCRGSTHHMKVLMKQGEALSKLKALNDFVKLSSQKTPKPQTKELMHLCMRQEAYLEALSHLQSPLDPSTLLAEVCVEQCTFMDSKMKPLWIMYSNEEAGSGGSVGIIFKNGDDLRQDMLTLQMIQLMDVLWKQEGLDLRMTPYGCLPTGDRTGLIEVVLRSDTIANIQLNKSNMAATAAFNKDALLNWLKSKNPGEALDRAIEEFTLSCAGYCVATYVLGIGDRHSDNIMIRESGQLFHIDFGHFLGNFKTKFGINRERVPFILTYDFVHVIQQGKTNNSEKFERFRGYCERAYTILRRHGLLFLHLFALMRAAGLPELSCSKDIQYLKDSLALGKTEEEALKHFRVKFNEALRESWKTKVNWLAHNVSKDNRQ
T1 sequence (P27986 whole entry partner): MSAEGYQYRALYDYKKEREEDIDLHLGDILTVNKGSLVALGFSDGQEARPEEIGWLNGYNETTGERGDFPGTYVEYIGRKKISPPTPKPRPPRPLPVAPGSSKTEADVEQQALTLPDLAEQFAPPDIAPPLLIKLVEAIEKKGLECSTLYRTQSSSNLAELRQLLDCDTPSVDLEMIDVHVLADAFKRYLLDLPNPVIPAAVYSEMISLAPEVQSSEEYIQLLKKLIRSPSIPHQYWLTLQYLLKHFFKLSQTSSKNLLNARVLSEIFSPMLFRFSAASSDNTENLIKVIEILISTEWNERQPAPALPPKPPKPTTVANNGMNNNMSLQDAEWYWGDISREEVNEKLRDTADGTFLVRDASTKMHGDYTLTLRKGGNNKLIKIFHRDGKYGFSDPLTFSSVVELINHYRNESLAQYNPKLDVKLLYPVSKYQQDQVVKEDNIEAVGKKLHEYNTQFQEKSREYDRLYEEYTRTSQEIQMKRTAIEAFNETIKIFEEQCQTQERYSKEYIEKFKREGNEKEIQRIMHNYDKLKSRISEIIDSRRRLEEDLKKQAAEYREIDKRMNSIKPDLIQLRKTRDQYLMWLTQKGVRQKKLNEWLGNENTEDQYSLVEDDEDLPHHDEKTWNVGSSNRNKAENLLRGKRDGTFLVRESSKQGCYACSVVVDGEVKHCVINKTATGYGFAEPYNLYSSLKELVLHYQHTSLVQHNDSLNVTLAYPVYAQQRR

| Structure (SMILES) | Ki [nM] |
| --- | --- |
| Cc1c(N2CCCCC2=O)nc2cc(F)cc(F)c2c1Nc1cncc(N2CCOCC2)c1 [1-(5,7-difluoro-3-methyl-4-((5-(4-morpholinyl)-3-pyridinyl)-amino)-2-quinolinyl)-2-piperidinone] | 203 |
| Cc1c(N2CC(C)(C)CC2=O)nc2cc(F)cc(F)c2c1Nc1cncc(N2CCOCC2)c1 [1-(5,7-difluoro-3-methyl-4-((5-(4-morpholinyl)-3-pyridinyl)-amino)-2-quinolinyl)-4,4-dimethyl-2-pyrrolidinone] | 21.4 |
| Cc1c(N2CC(C)(C)CCC2=O)nc2cc(F)cc(F)c2c1Nc1cncc(N2CCOCC2)c1 [1-(5,7-difluoro-3-methyl-4-((5-(4-morpholinyl)-3-pyridinyl)-amino)-2-quinolinyl)-5,5-dimethyl-2-piperidinone] | 38.6 |
| Cc1c(N2CCC[C@@H]2C(=O)O)nc2cc(F)cc(F)c2c1Nc1cncc(N2CCOCC2)c1 [1-(5,7-difluoro-3-methyl-4-((5-(4-morpholinyl)-3-pyridinyl)-amino)-2-quinolinyl)-D-proline] | 59.9 |
| Cc1c(N2CCC[C@H]2C(=O)O)nc2cc(F)cc(F)c2c1Nc1cncc(N2CCOCC2)c1 [1-(5,7-difluoro-3-methyl-4-((5-(4-morpholinyl)-3-pyridinyl)-amino)-2-quinolinyl)-L-proline] | 9.37 |
| Cc1c(-c2ccc(N3CCC(O)C3)nc2)nc2cc(F)cc(F)c2c1Nc1cc(N2CCOCC2)cnc1N1CCOCC1 (centres unmarked) [1-(5-(4-((2,5-di-4-morpholinyl-3-pyridinyl)amino)-5,7-difluoro-3-methyl-2-quinolinyl)-2-pyridinyl)-3-pyrrolidinol] | 36.3 |
| Cc1c(N2CCN(C(=O)OC(C)C)CC2)nc2cc(F)cc(F)c2c1Nc1cncc(N2CCOCC2)c1 [1-methylethyl 4-(5,7-difluoro-3-methyl-4-((5-(4-morpholinyl)-3-pyridinyl)amino)-2-quinolinyl)-1-piperazinecarboxylate] | 38.8 |
| Cc1c(N2CCN(C(=O)OCC(C)(C)C)CC2)nc2cc(F)cc(F)c2c1Nc1cncc(N2CCOCC2)c1 [2,2-dimethylpropyl 4-(5,7-difluoro-3-methyl-4-((5-(4-morpholinyl)-3-pyridinyl)amino)-2-quinolinyl)-1-piperazinecarboxylate] | 99 |
| Cc1c(-c2ccc(C(F)(F)F)cc2C(F)(F)F)nc2cc(F)cc(F)c2c1Nc1cc(N2CCOCC2)cnc1N1CCOCC1 [2-(2,4-bis(trifluoromethyl)phenyl)-N-(2,5-di-4-morpholinyl-3-pyridinyl)-5,7-difluoro-3-methyl-4-quinolinamine] | 344 |
| Cc1ccc(-c2nc3cc(F)cc(F)c3c(Nc3cc(N4CCOCC4)cnc3N3CCOCC3)c2C)c(C)c1 [2-(2,4-dimethylphenyl)-N-(2,5-di-4-morpholinyl-3-pyridinyl)-5,7-difluoro-3-methyl-4-quinolinamine] | 26.8 |
| Cc1ccc(-c2nc3cc(F)cc(F)c3c(Nc3cc(N4CCOCC4)cnc3N3CCOCC3)c2C)cc1C [2-(3,4-dimethylphenyl)-N-(2,5-di-4-morpholinyl-3-pyridinyl)-5,7-difluoro-3-methyl-4-quinolinamine] | 101 |
| Cc1c(N2CCN(S(=O)(=O)C3CCCC3)CC2)nc2cc(F)cc(F)c2c1Nc1cncc(N2CCOCC2)c1 [2-(4-(cyclopentylsulfonyl)-1-piperazinyl)-5,7-difluoro-3-methyl-N-(5-(4-morpholinyl)-3-pyridinyl)-4-quinolinamine] | 51 |
| CCS(=O)(=O)N1CCN(c2nc3cc(F)cc(F)c3c(Nc3cncc(N4CCOCC4)c3)c2C)CC1 [2-(4-(ethylsulfonyl)-1-piperazinyl)-5,7-difluoro-3-methyl-N-(5-(4-morpholinyl)-3-pyridinyl)-4-quinolinamine] | 88.4 |
| Cc1c(-c2cc(Cl)ccn2)nc2cc(F)cc(F)c2c1Nc1cc(N2CCOCC2)cnc1N1CCOCC1 [2-(4-chloro-2-pyridinyl)-N-(2,5-di-4-morpholinyl-3-pyridinyl)-5,7-difluoro-3-methyl-4-quinolinamine] | 4.37 |
| CCN1CCN(c2nc3cc(F)cc(F)c3c(Nc3cncc(N4CCOCC4)c3)c2C)CC1 [2-(4-ethyl-1-piperazinyl)-5,7-difluoro-3-methyl-N-(5-(4-morpholinyl)-3-pyridinyl)-4-quinolinamine] | 15.3 |

The remaining compounds from weak to strong by Ki, led by results:

| Ki [nM] | Structure (SMILES) |
| --- | --- |
| 582 | Cc1c(-c2cc(F)cc(F)c2)nc2ncccc2c1Nc1cc(N2CCOCC2)ccc1N1CCOCC1 [2-(3,5-difluorophenyl)-N-(2,5-di-4-morpholinylphenyl)-3-methyl-1,8-naphthyridin-4-amine] |
| 98.8 | Cc1c(N2CCN(CC(C)(C)C)CC2)nc2cc(F)cc(F)c2c1Nc1cncc(N2CCOCC2)c1 [2-(4-(2,2-dimethylpropyl)-1-piperazinyl)-5,7-difluoro-3-methyl-N-(5-(4-morpholinyl)-3-pyridinyl)-4-quinolinamine] |
| 42 | Cc1c(N2CCN(C(=O)C3CCCC3)CC2)nc2cc(F)cc(F)c2c1Nc1cncc(N2CCOCC2)c1 [2-(4-(cyclopentylcarbonyl)-1-piperazinyl)-5,7-difluoro-3-methyl-N-(5-(4-morpholinyl)-3-pyridinyl)-4-quinolinamine] |
| 33.6 | CC(=O)N1CCN(c2nc3cc(F)cc(F)c3c(Nc3cncc(N4CCOCC4)c3)c2C)CC1 [2-(4-acetyl-1-piperazinyl)-5,7-difluoro-3-methyl-N-(5-(4-morpholinyl)-3-pyridinyl)-4-quinolinamine] |
| 28.4 | Cc1c(N2CCN(C3CCCCC3)CC2)nc2cc(F)cc(F)c2c1Nc1cncc(N2CCOCC2)c1 [2-(4-cyclohexyl-1-piperazinyl)-5,7-difluoro-3-methyl-N-(5-(4-morpholinyl)-3-pyridinyl)-4-quinolinamine] |
| 27.2 | Cc1c(N2CCC2=O)nc2cc(F)cc(F)c2c1Nc1cncc(N2CCOCC2)c1 [1-(5,7-difluoro-3-methyl-4-((5-(4-morpholinyl)-3-pyridinyl)-amino)-2-quinolinyl)-2-azetidinone] |
| 12.9 | Cc1cccc(-c2nc3cc(F)cc(F)c3c(Nc3cc(N4CCOCC4)cnc3N3CCOCC3)c2C)c1C [2-(2,3-dimethylphenyl)-N-(2,5-di-4-morpholinyl-3-pyridinyl)-5,7-difluoro-3-methyl-4-quinolinamine] |
| 11.2 | Cc1c(-c2cncc(Cl)c2)nc2cc(F)cc(F)c2c1Nc1cc(N2CCOCC2)cnc1N1CCOCC1 [2-(5-chloro-3-pyridinyl)-N-(2,5-di-4-morpholinyl-3-pyridinyl)-5,7-difluoro-3-methyl-4-quinolinamine] |
| 10.4 | CNC(=O)[C@H]1CCCN1c1nc2cc(F)cc(F)c2c(Nc2cncc(N3CCOCC3)c2)c1C [1-(5,7-difluoro-3-methyl-4-((5-(4-morpholinyl)-3-pyridinyl)-amino)-2-quinolinyl)-N-methyl-D-prolinamide] |
| 10.3 | Cc1c(N2CCC[C@@H]2C(=O)N(C)C)nc2cc(F)cc(F)c2c1Nc1cncc(N2CCOCC2)c1 [1-(5,7-difluoro-3-methyl-4-((5-(4-morpholinyl)-3-pyridinyl)-amino)-2-quinolinyl)-N,N-dimethyl-D-prolinamide] |
| 2.18 | CC(=O)c1ccc(S(C)(=O)=O)c(-c2nc3cc(F)cc(F)c3c(Nc3cncc(N4CCOCC4)c3)c2C)c1 [1-(3-(5,7-difluoro-3-methyl-4-((5-(4-morpholinyl)-3-pyridinyl)-amino)-2-quinolinyl)-4-(methylsulfonyl)phenyl)ethanone] |
